In patent publication US20260007758A1, “SO[…]-2 RECEPTOR (SST2R) NON-PEPTIDE DRUG CONJUGATES AND USES THEREOF” (Crinetics Pharmaceuticals, Inc., priority 2024, published 2026) one finds EC50 data, which are given here for 15 compounds.

Type in all cases: cell-based
Assay [1] has as its target T1, human somatostatin receptor subtype 2 (Homo sapiens, UniProt P30874).
T1 construct: expressed in transfected cells
The assay can be described thus: Functional assay for SSTR2 agonists (HTRF cAMP). The conditions noted are these: CHO-K1 cells stably expressing human SST2; NKH477-stimulated cAMP; 20 min at 37 C; read-out: hSST2 cAMP Avg EC50. The gist of the method:
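CHO-K1 cells stably expressing human SSTR2 treated with compound (typically 0-10,000 nM final) for 20 min at 37 °C. Lysate cAMP measured by HTRF (665/620 nm ratio), converted via standard curve; EC50 from cAMP vs concentration.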

The next assay addresses T2, SST2 (Homo sapiens, UniProt P30874).
T2 construct: host or cells: PathHunter CHO-K1 SST2 cells
The assay can be described thus: PathHunter CHO-K1 SST2 Internalization Assay. The conditions noted are these: PathHunter CHO-K1 SST2 cells; 90 min at 37 C; luminescence; read-out: Internalization EC50. The gist of the method:
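CHO-K1 cells expressing human SST2, 2500 cells/well, grown 48 h, then exposed 90 min at 37 C to 11-point 1:3 NDC dilutions (final top 10 uM). Beta-Glo luminescence after 60 min at room temperature; four-parameter IC50, duplicate mean, background-corrected.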

In assay [2] the test system is NCI-H524 human small cell lung cancer cells. Put plainly: H524 assay: inhibition of cell proliferation (CellTiter Glo). The conditions noted are these: 2 h treatment, washout, additional 70 h incubation. Put shortly: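 NCI-H524 cells were exposed for 2 h to NDC in an 11-point two-fold series starting at 1 uM. The drug was then washed out and cells grew a further 70 h. CellTiter Glo luminescence gave % inhibition versus untreated control, and IC50 came from a four-parameter nonlinear regression.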

T2 sequence (P30874 whole entry): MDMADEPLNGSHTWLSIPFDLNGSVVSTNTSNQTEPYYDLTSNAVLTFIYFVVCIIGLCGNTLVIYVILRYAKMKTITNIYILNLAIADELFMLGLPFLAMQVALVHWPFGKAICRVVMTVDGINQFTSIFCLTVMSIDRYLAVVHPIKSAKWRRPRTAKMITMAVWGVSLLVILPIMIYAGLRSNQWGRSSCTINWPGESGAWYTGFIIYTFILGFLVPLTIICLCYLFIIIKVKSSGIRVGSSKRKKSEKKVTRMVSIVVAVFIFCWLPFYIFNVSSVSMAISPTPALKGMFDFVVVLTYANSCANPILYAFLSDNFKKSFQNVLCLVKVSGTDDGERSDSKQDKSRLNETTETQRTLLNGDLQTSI
T1 sequence (P30874 whole entry): as above

As a reminder, the EC50 is the concentration needed to bring the measured effect to its halfway point. As for `CC[C@H](C)[C@@H]([C@@H](CC(=O)N1CCC[C@H]1[C@H](OC)[C@@H](C)C(=O)N[C@H](C)[C@@H](O)c1ccccc1)OC)N(C)C(=O)[C@@H](NC(=O)[C@H](C(C)C)N(C)C(=O)OCc1ccc(NC(=O)[C@H](CCCNC(N)=O)NC(=O)[C@@H](NC(=O)CCOCCC(=O)NCCNc2ncc(-c3cc(C)cc(F)c3)c(N3CCC(N)CC3)c2-c2nc3ccc(Cl)cc3[nH]2)C(C)C)c(O[C@@H]2O[C@H](C(=O)N(C)C)[C@@H](O)[C@H](O)[C@H]2O)c1)C(C)C` [Compound 217], the results for the concentration for a half-maximal effect (EC50) (in assay [1]; at SST2; in assay [2]) were 0.093 nM, 6 nM and 6.9 nM, respectively.
As to `CC[C@H](C)[C@@H]([C@@H](CC(=O)N1CCC[C@H]1[C@H](OC)[C@@H](C)C(=O)N[C@H](C)[C@@H](O)c1ccccc1)OC)N(C)C(=O)[C@@H](NC(=O)[C@H](C(C)C)N(C)C(=O)OCc1ccc(NC(=O)[C@H](C)NC(=O)[C@@H](NC(=O)[C@H](CS(=O)(=O)O)NC(=O)CCOCCC(=O)NCCNc2ncc(-c3cc(C)cc(F)c3)c(N3CCC(N)CC3)c2-c2nc3ccc(Cl)cc3[nH]2)C(C)C)cc1C(=O)NCCN)C(C)C` [Compound 27], the EC50 in assay [1] worked out at 0.12 nM; on SST2, 7.2 nM; in assay [2], 190 nM.
With `CC[C@H](C)[C@@H]([C@@H](CC(=O)N1CCC[C@H]1[C@H](OC)[C@@H](C)C(=O)N[C@H](C)[C@@H](O)c1ccccc1)OC)N(C)C(=O)[C@@H](NC(=O)[C@H](C(C)C)N(C)C(=O)OCc1ccc(NC(=O)[C@H](CCCNC(N)=O)NC(=O)[C@@H](NC(=O)c2cc(NC(=O)CCOCCOCCOCCOCCC(=O)NCCNc3ncc(-c4cc(C)cc(F)c4)c(N4CCC(N)CC4)c3-c3nc4ccc(Cl)cc4[nH]3)cc(C(=O)NCC(=O)O)c2)C(C)C)cc1)C(C)C` [Compound 150], the results for the EC50 (in assay [1]; at SST2; in assay [2]) were 0.083 nM, 8.3 nM and 53 nM, respectively.
In the case of `CC[C@H](C)[C@@H]([C@@H](CC(=O)N1CCC[C@H]1[C@H](OC)[C@@H](C)C(=O)N[C@H](C)[C@@H](O)c1ccccc1)OC)N(C)C(=O)[C@@H](NC(=O)[C@H](C(C)C)N(C)C(=O)OCc1ccc(NC(=O)[C@H](CCCNC(N)=O)NC(=O)[C@@H](NC(=O)c2cc(NC(=O)CCCC(=O)NCCNc3ncc(-c4cc(C)cc(F)c4)c(N4CCC(N)CC4)c3-c3nc4ccc(Cl)cc4[nH]3)cc(C(=O)NC[C@@H](N)C(=O)O)c2)C(C)C)cc1)C(C)C` [Compound 170], the values for the concentration for a half-maximal effect (EC50) (in assay [1]; on SST2; in assay [2]) were 0.31 nM, 12 nM and 22 nM, respectively.
The matching figures for `CC[C@H](C)[C@@H]([C@@H](CC(=O)N1CCC[C@H]1[C@H](OC)[C@@H](C)C(=O)N[C@H](C)[C@@H](O)c1ccccc1)OC)N(C)C(=O)[C@@H](NC(=O)[C@H](C(C)C)N(C)C(=O)OCc1ccc(NC(=O)[C@H](CCCNC(N)=O)NC(=O)[C@@H](NC(=O)c2cn(CCOCCC(=O)NCCNc3ncc(-c4cc(C)cc(F)c4)c(N4CCC(N)CC4)c3-c3nc4ccc(Cl)cc4[nH]3)nn2)C(C)C)c(O[C@@H]2C[C@H](C(=O)O)[C@@H](O)[C@H](O)[C@H]2O)c1)C(C)C` [Compound 131]: 0.34 nM, 4.5 nM and 1600 nM.
In the case of `CC[C@H](C)[C@@H]([C@@H](CC(=O)N1CCC[C@H]1[C@H](OC)[C@@H](C)C(=O)N[C@H](C)[C@@H](O)c1ccccc1)OC)N(C)C(=O)[C@@H](NC(=O)[C@H](C(C)C)N(C)C(=O)OCc1ccc(NC(=O)[C@H](CCCNC(N)=O)NC(=O)[C@@H](NC(=O)CCOCCC(=O)NCCNc2ncc(-c3cc(C)cc(F)c3)c(N3CCC(N)CC3)c2-c2nc3ccc(Cl)cc3[nH]2)C(C)C)c(OCCN)c1)C(C)C` [Compound 10], the half-maximal effective concentration (EC50) in assay [1] came to 0.21 nM; on SST2, 2.7 nM; in assay [2], 0.76 nM.
On to `CC[C@H](C)[C@@H]([C@@H](CC(=O)N1CCC[C@H]1[C@H](OC)[C@@H](C)C(=O)N[C@H](C)[C@@H](O)c1ccccc1)OC)N(C)C(=O)[C@@H](NC(=O)[C@H](C(C)C)N(C)C(=O)OCc1ccc(NC(=O)[C@H](CCCNC(N)=O)NC(=O)[C@@H](NC(=O)c2cc(C(=O)NCC(=O)O)cc(N(C)CCOCCOCCOCCOCCC(=O)NCCNc3ncc(-c4cc(C)cc(F)c4)c(N4CCC(N)CC4)c3-c3nc4ccc(Cl)cc4[nH]3)c2)C(C)C)cc1)C(C)C` [Compound 159], for which the figures for the concentration giving a half-maximal response (EC50) (in assay [1]; on SST2; in assay [2]) were 1.2 nM, 23 nM and 130 nM, respectively.
As to `CC[C@H](C)[C@@H]([C@@H](CC(=O)N1CCC[C@H]1[C@H](OC)[C@@H](C)C(=O)N[C@H](C)[C@@H](O)c1ccccc1)OC)N(C)C(=O)[C@@H](NC(=O)[C@H](C(C)C)N(C)C(=O)OCc1ccc(NC(=O)[C@H](CCCNC(N)=O)NC(=O)[C@@H](NC(=O)C[C@@H](N)C(=O)NCCOCCOCCC(=O)NCCNc2ncc(-c3cc(C)cc(F)c3)c(N3CCC(N)CC3)c2-c2nc3ccc(Cl)cc3[nH]2)C(C)C)c(O[C@@H]2O[C@H](C(=O)O)[C@@H](O)[C@H](O)[C@H]2O)c1)C(C)C` [Compound 137], the figures for the half-maximal effective concentration (EC50) (in assay [1]; at SST2; in assay [2]) were 0.27 nM, 2.8 nM and 850 nM, respectively.
Take `CC[C@H](C)[C@@H]([C@@H](CC(=O)N1CCC[C@H]1[C@H](OC)[C@@H](C)C(=O)N[C@H](C)[C@@H](O)c1ccccc1)OC)N(C)C(=O)[C@@H](NC(=O)[C@H](C(C)C)N(C)C(=O)OCc1ccc(NC(=O)[C@H](CCCNC(N)=O)NC(=O)[C@@H](NC(=O)[C@H](CCc2nnn[nH]2)NC(=O)CCOCCC(=O)NCCNc2ncc(-c3cc(C)cc(F)c3)c(N3CCC(N)CC3)c2-c2nc3ccc(Cl)cc3[nH]2)C(C)C)cc1)C(C)C` [Compound 176]: the 50% effective concentration (EC50) in assay [1] amounted to 0.28 nM; on SST2, 3.7 nM; in assay [2] it was 620 nM.
The like results for `CC[C@H](C)[C@@H]([C@@H](CC(=O)N1CCC[C@H]1[C@H](OC)[C@@H](C)C(=O)N[C@H](C)[C@@H](O)c1ccccc1)OC)N(C)C(=O)[C@@H](NC(=O)[C@H](C(C)C)N(C)C(=O)OCc1ccc(NC(=O)[C@H](CCCNC(N)=O)NC(=O)[C@@H](NC(=O)c2cc(NC(=O)CCOCCn3cc(CCC(=O)NCCNc4ncc(-c5cc(C)cc(F)c5)c(N5CCC(N)CC5)c4-c4nc5ccc(Cl)cc5[nH]4)nn3)cc(C(=O)NCC(=O)O)c2)C(C)C)cc1)C(C)C` [Compound 155] were, in that order, 0.44 nM, 10 nM and 300 nM.
Regarding `CC[C@H](C)[C@@H]([C@@H](CC(=O)N1CCC[C@H]1[C@H](OC)[C@@H](C)C(=O)N[C@H](C)[C@@H](O)c1ccccc1)OC)N(C)C(=O)[C@@H](NC(=O)[C@H](C(C)C)N(C)C(=O)OCc1ccc(NC(=O)[C@H](C)NC(=O)[C@@H](NC(=O)CCOCCC(=O)NCCN(C)c2ncc(-c3cc(C)cc(F)c3)c(N3CCC(N)CC3)c2-c2nc3ccc(Cl)cc3[nH]2)C(C)C)c(O[C@@H]2O[C@H](C(=O)O)[C@@H](O)[C@H](O)[C@H]2O)c1)C(C)C` [Compound 125], the results for the EC50 (in assay [1]; on SST2; in assay [2]) were 0.59 nM, 48 nM and 580 nM, respectively.
Consider `CC[C@H](C)[C@@H]([C@@H](CC(=O)N1CCC[C@H]1[C@H](OC)[C@@H](C)C(=O)N[C@H](C)[C@@H](O)c1ccccc1)OC)N(C)C(=O)[C@@H](NC(=O)[C@H](C(C)C)N(C)C(=O)OCc1ccc(NC(=O)[C@H](CCCNC(N)=O)NC(=O)[C@@H](NC(=O)CCOCCOCCC(=O)NCCNc2ncc(-c3cc(C)cc(F)c3)c(N3CCC(N)CC3)c2-c2nc3ccc(Cl)cc3[nH]2)C(C)C)cc1C(=O)NCCNC(=O)CCOCCOCCOCCOCCC(=O)O)C(C)C` [Compound 74], for which the EC50 in assay [1] amounted to 0.19 nM; at SST2, 4.3 nM; in assay [2] it was 17 nM.
As for `CC[C@H](C)[C@@H]([C@@H](CC(=O)N1CCC[C@H]1[C@H](OC)[C@@H](C)C(=O)N[C@H](C)[C@@H](O)c1ccccc1)OC)N(C)C(=O)[C@@H](NC(=O)[C@H](C(C)C)N(C)C(=O)OCc1ccc(NC(=O)[C@H](CCCNC(N)=O)NC(=O)[C@@H](NC(=O)CCOCCC(=O)NCCNc2ncc(-c3cc(C)cc(F)c3)c(N3CCC(N)CC3)c2-c2nc3ccc(Cl)cc3[nH]2)C(C)C)cc1C(=O)N[C@@H](CCCNC(=O)CCCCc1ccc(I)cc1)C(=O)O)C(C)C` [Compound 247], the 50% effective concentration (EC50) in assay [1] came to 0.19 nM; at SST2, 1.4 nM; in assay [2], 18 nM.
The like results for `CC[C@H](C)[C@@H]([C@@H](CC(=O)N1CCC[C@H]1[C@H](OC)[C@@H](C)C(=O)N[C@H](C)[C@@H](O)c1ccccc1)OC)N(C)C(=O)[C@@H](NC(=O)[C@H](C(C)C)N(C)C(=O)OCc1ccc(NC(=O)[C@H](CCCNC(N)=O)NC(=O)[C@@H](NC(=O)CCOCCOCCOCCOCCC(=O)NCCNc2ncc(-c3cc(C)cc(F)c3)c(N3CCC(N)CC3)c2-c2nc3ccc(Cl)cc3[nH]2)C(C)C)c(OCC(=O)O)c1)C(C)C` [Compound 19] were, in that order, 0.07 nM, 8.1 nM and 28 nM.
The like results for `CC[C@H](C)[C@@H]([C@@H](CC(=O)N1CCC[C@H]1[C@H](OC)[C@@H](C)C(=O)N[C@H](C)[C@@H](O)c1ccccc1)OC)N(C)C(=O)[C@@H](NC(=O)[C@H](C(C)C)N(C)C(=O)OCc1ccc(NC(=O)[C@H](CCCNC(N)=O)NC(=O)[C@@H](NC(=O)c2cc(NCCOCCC(=O)NCCNc3ncc(-c4cc(C)cc(F)c4)c(N4CCC(N)CC4)c3-c3nc4ccc(Cl)cc4[nH]3)cc(C(=O)NCCN(CC(=O)O)CC(=O)O)c2)C(C)C)cc1C(=O)NCCN)C(C)C` [Compound 58] were, in that order, 0.26 nM, 14 nM and 910 nM.
